Assay results: EPA's ToxRefDB 2

Tests used:
rat [1] = conditions: Prenatal developmental toxicity study, sprague dawley, Oral, Gavage/Intubation, dose end: 15 GD
rabbit [2] = conditions: Prenatal developmental toxicity study, new zealand white, Oral, Gavage/Intubation, dose end: 18 GD
rabbit [3] = conditions: Prenatal developmental toxicity study, new zealand white, Oral, Gavage/Intubation, dose end: 28 GD
rat [4] = conditions: Multigenerational reproductive toxicity study, wistar, Oral, Feed, dose end: 2 generation
rat [5] = conditions: Prenatal developmental toxicity study, sprague dawley, Oral, Gavage/Intubation, dose end: 20 GD
rabbit [6] = conditions: Prenatal developmental toxicity study; himalayan; Inhalation; Whole-Body; dose end: 29 GD; group: developmental; developmental / developmental malformation / heart / adhesions + developmental / developmental malformation / kidney / dilatation
rat [7] = conditions: Prenatal developmental toxicity study; wistar; Inhalation; Whole-Body; dose end: 20 GD; group: developmental; developmental / developmental malformation / heart / dilatation
rat [8] = conditions: Prenatal developmental toxicity study, sprague dawley, Inhalation, Whole-Body, dose end: 15 GD
rabbit [9] = conditions: Prenatal developmental toxicity study, dutch, Inhalation, Whole-Body, dose end: 18 GD
rat [10] = conditions: Prenatal developmental toxicity study, sprague dawley, Inhalation, Whole-Body, dose end: 15 GD; remark: listed apart in the source
rabbit [11] = conditions: Prenatal developmental toxicity study, new zealand white, Inhalation, Whole-Body, dose end: 18 GD
rat [12] = conditions: Prenatal developmental toxicity study, fischer, Inhalation, Whole-Body, dose end: 15 GD
dog = conditions: Chronic toxicity, beagle, Oral, Feed, dose end: 52 week
mouse [13] = conditions: Carcinogenicity, cd1, Oral, Feed, dose end: 90 week
rat [14] = conditions: Combined chronic toxicity/carcinogenicity, fischer, Oral, Feed, dose end: 24 month
mouse [15] = conditions: Multigenerational reproductive toxicity study, cd1, Oral, Water, dose end: 2 generation
[16] = group: developmental, developmental / developmental malformation / bone / bent + developmental / developmental malformation / bone / full supernumerary + …
[17] = group: maternal, systemic / in life observation / body weight / body weight gain
[18] = group: maternal, systemic / in life observation / body weight / body weight gain + systemic / in life observation / clinical signs / urine staining - …
[19] = group: developmental, developmental / developmental malformation / bone / full supernumerary
[20] = group: maternal, systemic / in life observation / body weight / body weight gain + systemic / in life observation / food consumption / food consumption
[21] = group: maternal, systemic / in life observation / body weight / body weight gain + systemic / in life observation / food consumption / food consumption + …
[22] = group: developmental, developmental / developmental malformation / bone / [other] + developmental / developmental malformation / bone / extra ossification site + …
[23] = group: offspring, developmental / offspring survival late / viability index / viability index + systemic / in life observation / body weight / offspring (pup…
[24] = group: parental, systemic / pathology microscopic / thyroid gland / colloid content
[25] = group: parental, systemic / pathology microscopic / thyroid gland / colloid content + systemic / organ weight / thyroid gland / absolute + systemic / organ …
[26] = group: developmental, developmental / developmental malformation / bone / incomplete ossification + developmental / developmental malformation / bone / short + …
[27] = group: maternal, systemic / in life observation / body weight / body weight gain + systemic / in life observation / clinical signs / salivation + systemic / …
[28] = group: developmental, developmental / developmental malformation / bone / [other] + developmental / developmental malformation / bone / fused + developmental / …
[29] = group: developmental, developmental / developmental malformation / bone / [other] + developmental / developmental malformation / heart / [other] + systemic / in …
[30] = group: maternal, reproductive / reproductive performance / resorptions / resorptions
[31] = group: developmental, developmental / developmental malformation / bone / delayed ossification + developmental / developmental malformation / bone / misaligned + …
[32] = group: maternal, reproductive / reproductive performance / postimplantation loss / postimplantation loss + systemic / hematology / hemoglobin (hgb) / …
[33] = group: developmental, developmental / developmental malformation / bone / wavy + developmental / developmental malformation / general / [other] + developmental / …
[34] = group: developmental, developmental / developmental malformation / general / [other] + systemic / in life observation / body weight / fetal weight
[35] = group: developmental, developmental / developmental malformation / bone / [other] + developmental / developmental malformation / bone / absent + developmental / …
[36] = group: maternal, reproductive / reproductive performance / estrous cycle / corpora lutea + reproductive / reproductive performance / implantations / …
[37] = group: developmental, developmental / developmental malformation / bone / [other] + developmental / developmental malformation / bone / bipartite ossification + …
[38] = group: developmental, developmental / developmental malformation / bone / incomplete ossification + developmental / developmental malformation / bone / unossified
[39] = group: maternal, reproductive / reproductive performance / implantations / implantations + systemic / hematology / erythrocyte (rbc) count differential / …
[40] = group: maternal, systemic / organ weight / liver / absolute
[41] = group: cholinesterase, cholinesterase / cholinesterase / cholinesterase / plasma cholinesterase (che)
[42] = group: cholinesterase, cholinesterase / cholinesterase / cholinesterase / plasma cholinesterase (che) + cholinesterase / cholinesterase / cholinesterase / …
[43] = group: systemic, systemic / hematology / erythrocyte (rbc) count differential / erythrocyte (rbc) + systemic / hematology / hematocrit (hct) / hematocrit (…
[44] = group: cholinesterase, cholinesterase / cholinesterase / cholinesterase / brain cholinesterase (che) + cholinesterase / cholinesterase / cholinesterase / …
[45] = group: systemic, systemic / hematology / mean corpuscular (cell) volume (mcv) / mean corpuscular (cell) volume (mcv) + systemic / hematology / mean …
[46] = group: systemic, systemic / clinical chemistry / alanine aminotransferase (alt/sgpt) / alanine aminotransferase (alt/sgpt) + systemic / clinical chemistry / …
[47] = group: offspring, systemic / in life observation / body weight / offspring (pup) weight
[48] = group: parental, systemic / organ weight / kidney / relative to body weight + systemic / organ weight / epididymis / relative to body weight + systemic / …

O=C(O)COc1ccc(Cl)cc1Cl.OCCNCCO [2,4-Dichlorophenoxyacetic acid diethanolamine]
LEL (rat [1]; [16]): 75 mg/kg/day
LOAEL (rat [1]; [16]): 75 mg/kg/day
NEL (rat [1]; [16]): 15 mg/kg/day
NOAEL (rat [1]; [16]): 15 mg/kg/day
LEL (rat [1]; [17]): 75 mg/kg/day
LOAEL (rat [1]; [17]): 75 mg/kg/day
NEL (rat [1]; [18]): 15 mg/kg/day
NOAEL (rat [1]; [18]): 15 mg/kg/day
LEL (rabbit [2]; [19]): 60 mg/kg/day
LOAEL (rabbit [2]; [19]): > 60 mg/kg/day
NEL (rabbit [2]; [19]): 30 mg/kg/day
NOAEL (rabbit [2]; [19]): ≥ 60 mg/kg/day
LEL (rabbit [2]; [20]): 30 mg/kg/day
LOAEL (rabbit [2]; [20]): 30 mg/kg/day
NEL (rabbit [2]; [21]): 15 mg/kg/day
NOAEL (rabbit [2]; [21]): 15 mg/kg/day

Cc1[nH]n(C)c(=O)c1C(=O)c1ccc(C(F)(F)F)cc1S(C)(=O)=O [Pyrasulfotole]
LEL (rabbit [3]; [22]): 75 mg/kg/day
LOAEL (rabbit [3]; [22]): 75 mg/kg/day
NEL (rabbit [3]; [22]): 10 mg/kg/day
NOAEL (rabbit [3]; [22]): 10 mg/kg/day
LEL (rabbit [3]; [20]): 250 mg/kg/day
LOAEL (rabbit [3]; [20]): 250 mg/kg/day
NEL (rabbit [3]; [20]): 75 mg/kg/day
NOAEL (rabbit [3]; [20]): 75 mg/kg/day
LEL (rat [4]; [23]): 3.68 mg/kg/day
LOAEL (rat [4]; [23]): > 354 mg/kg/day
NEL (rat [4]; [23]): < 3.68 mg/kg/day
NOAEL (rat [4]; [23]): ≥ 354 mg/kg/day
LOAEL (rat [4]; [24]): 2.5 mg/kg/day
NOAEL (rat [4]; [24]): < 2.5 mg/kg/day
LEL (rat [4]; [25]): 2.5 mg/kg/day
NEL (rat [4]; [25]): < 2.5 mg/kg/day
LEL (rat [5]; [26]): 100 mg/kg/day
LOAEL (rat [5]; [26]): 100 mg/kg/day
NEL (rat [5]; [26]): 10 mg/kg/day
NOAEL (rat [5]; [26]): 10 mg/kg/day
LEL (rat [5]; [27]): 100 mg/kg/day
LOAEL (rat [5]; [27]): 100 mg/kg/day
NEL (rat [5]; [27]): 10 mg/kg/day
NOAEL (rat [5]; [27]): 10 mg/kg/day

CC(C)CO [2-Methyl-1-propanol]
LEL (rabbit [6]): 10 mg/L
LOAEL (rabbit [6]): > 10 ppm
NEL (rabbit [6]): 2.5 ppm
NOAEL (rabbit [6]): ≥ 10 ppm
LEL (rat [7]): 10 ppm
LOAEL (rat [7]): > 10 ppm
NEL (rat [7]): 2.5 ppm
NOAEL (rat [7]): ≥ 10 ppm

CCOCCOC(C)=O [2-Ethoxyethyl acetate]
LOAEL (rat [8]; [28]): > 600 mg/kg/day
NOAEL (rat [8]; [28]): ≥ 600 mg/kg/day
LEL (rat [8]; [29]): 130 mg/kg/day
NEL (rat [8]; [29]): < 130 mg/kg/day
LEL (rat [8]; [30]): 390 mg/kg/day
LOAEL (rat [8]; [30]): > 600 mg/kg/day
NEL (rat [8]; [30]): 130 mg/kg/day
NOAEL (rat [8]; [30]): ≥ 600 mg/kg/day
LOAEL (rabbit [9]; [31]): > 400 ppm
NEL (rabbit [9]; [31]): 25 ppm
NOAEL (rabbit [9]; [31]): ≥ 400 ppm
LEL (rabbit [9]; group: developmental, developmental / developmental malformation / bone / delayed ossification + developmental / developmental malformation / spleen / pale + …): 100 ppm
LEL (rabbit [9]; [32]): 400 ppm
LOAEL (rabbit [9]; [32]): > 400 ppm
NEL (rabbit [9]; [32]): 100 ppm
NOAEL (rabbit [9]; [32]): ≥ 400 ppm
LOAEL (rat [10]; [33]): > 600 ppm
NOAEL (rat [10]; [33]): ≥ 600 ppm
LEL (rat [10]; [34]): 130 ppm
NEL (rat [10]; [34]): < 130 ppm
LEL (rat [10]; [30]): 390 ppm
LOAEL (rat [10]; [30]): > 600 ppm
NEL (rat [10]; [30]): 130 ppm
NOAEL (rat [10]; [30]): ≥ 600 ppm
LOAEL (rabbit [11]; [35]): > 300 ppm
NEL (rabbit [11]; [35]): 50 ppm
NOAEL (rabbit [11]; [35]): ≥ 300 ppm
LEL (rabbit [11]; group: developmental, developmental / developmental malformation / bone / incomplete ossification + developmental / developmental malformation / bone / misshapen…): 100 ppm
LOAEL (rabbit [11]; [36]): > 300 ppm
NEL (rabbit [11]; [36]): 50 ppm
NOAEL (rabbit [11]; [36]): ≥ 300 ppm
LEL (rabbit [11]; group: maternal, systemic / hematology / platelet / platelet + systemic / in life observation / body weight / body weight gain + systemic / in life …): 100 ppm
LOAEL (rat [12]; [37]): > 300 ppm
NOAEL (rat [12]; [37]): ≥ 300 ppm
LEL (rat [12]; [38]): 50 ppm
NEL (rat [12]; [38]): < 50 ppm
LOAEL (rat [12]; [39]): > 300 ppm
NOAEL (rat [12]; [39]): ≥ 300 ppm
LEL (rat [12]; [40]): 50 ppm
NEL (rat [12]; [40]): < 50 ppm

CCCCSP(=O)(SCCCC)SCCCC [Tribufos]
LEL (dog; [41]): 0.4 mg/kg/day
LOAEL (dog; [41]): 0.4 mg/kg/day
NEL (dog; [42]): 0.1 mg/kg/day
NOAEL (dog; [42]): 0.1 mg/kg/day
LOAEL (dog; group: systemic, systemic / hematology / erythrocyte (rbc) count differential / erythrocyte (rbc)): 1.7 mg/kg/day
LEL (dog; [43]): 1.7 mg/kg/day
NEL (dog; [43]): 0.4 mg/kg/day
NOAEL (dog; [43]): 0.4 mg/kg/day
LEL (mouse [13]; [44]): 1.64 mg/kg/day
LOAEL (mouse [13]; [44]): 1.64 mg/kg/day
NEL (mouse [13]; [44]): < 1.64 mg/kg/day
NOAEL (mouse [13]; [44]): < 1.64 mg/kg/day
LEL (mouse [13]; [45]): 1.64 mg/kg/day
LOAEL (mouse [13]; [45]): 1.64 mg/kg/day
NEL (mouse [13]; [45]): < 1.64 mg/kg/day
NOAEL (mouse [13]; [45]): < 1.64 mg/kg/day
LEL (rat [14]; [41]): 0.2 mg/kg/day
LOAEL (rat [14]; [41]): 0.2 mg/kg/day
NEL (rat [14]; [41]): < 0.2 mg/kg/day
NOAEL (rat [14]; [41]): < 0.2 mg/kg/day
LEL (rat [14]; [46]): 1.8 mg/kg/day
LOAEL (rat [14]; [46]): > 16.8 mg/kg/day
NEL (rat [14]; [46]): 0.2 mg/kg/day
NOAEL (rat [14]; [46]): ≥ 16.8 mg/kg/day

CC(=O)OCCOCCOCCOC(C)=O [Triethylene glycol diacetate]
LEL (mouse [15]; [47]): 4000 mg/kg/day
LOAEL (mouse [15]; [47]): > 4000 mg/kg/day
NEL (mouse [15]; [47]): 2000 mg/kg/day
NOAEL (mouse [15]; [47]): ≥ 4000 mg/kg/day
NEL (mouse [15]; group: parental, systemic / organ weight / kidney / relative to body weight): 2000 mg/kg/day
LEL (mouse [15]; [48]): 4000 mg/kg/day
LOAEL (mouse [15]; [48]): > 4000 mg/kg/day
NOAEL (mouse [15]; [48]): ≥ 4000 mg/kg/day
